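Values below derive from 48-hour exposures of cells grown in 96-well plates, with endpoints linearly interpolated between the two concentrations bracketing the appropriate inhibition level. At the GI50, growth is halved.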 The source made the active and inactive calls. Rule as the data show it: active = GI50 up to about 1.1 µM and inactive = higher.
Columns and labels:
Assay in all cases: growth of human tumour cells (NCI), 48 h
786-0 = system: 786-0
A498 = system: A498
A549 = system: A549
ACHN = system: ACHN
CCRF-CEM = system: CCRF-CEM
COLO 205 = system: COLO 205
DLD-1 = system: DLD-1
DMS-114 = system: DMS-114
DMS-273 = system: DMS-273
HCC 2998 = system: HCC 2998
HCT-116 = system: HCT-116
HCT-15 = system: HCT-15
HL-60 = system: HL-60
HOP-62 = system: HOP-62
HOP-92 = system: HOP-92
HT-29 = system: HT-29
IGROV-1 = system: IGROV-1
KM-20L2 = system: KM-20L2
KM12 = system: KM12
LOX IMVI = system: LOX IMVI
LXFL 529 = system: LXFL 529
M14 = system: M14
M19-MEL = system: M19-MEL
MOLT-4 = system: MOLT-4
Malme-3M = system: Malme-3M
NCI-H226 = system: NCI-H226
NCI-H23 = system: NCI-H23
NCI-H460 = system: NCI-H460
NCI-H522 = system: NCI-H522
OVCAR-3 = system: OVCAR-3
OVCAR-4 = system: OVCAR-4
OVCAR-5 = system: OVCAR-5
OVCAR-8 = system: OVCAR-8
RPMI-8226 = system: RPMI-8226
SF-268 = system: SF-268
SF-295 = system: SF-295
SF-539 = system: SF-539
SK-MEL-28 = system: SK-MEL-28
SK-MEL-2 = system: SK-MEL-2
SK-MEL-5 = system: SK-MEL-5
SK-OV-3 = system: SK-OV-3
SN12C = system: SN12C
SNB-75 = system: SNB-75
SNB-78 = system: SNB-78
SR = system: SR
TK-10 = system: TK-10
U-251 = system: U-251
UACC-257 = system: UACC-257
UO-31 = system: UO-31
XF498 = system: XF498
CAKI-1 = system: CAKI-1
DU-145 = system: DU-145
EKVX = system: EKVX
Hs-578T = system: Hs-578T
K562 = system: K562
MCF7 = system: MCF7
MDA-MB-231 = system: MDA-MB-231
MDA-MB-435 = system: MDA-MB-435
MDA-N = system: MDA-N
NCI/ADR-RES = system: NCI/ADR-RES
PC-3 = system: PC-3
RXF 393 = system: RXF 393
SNB-19 = system: SNB-19
SW-620 = system: SW-620
UACC-62 = system: UACC-62

COc1ccc(C2NC3=C(CCCC3)N2)cc1
GI50 (786-0): 41100 nM (inactive)
GI50 (A498): 79400 nM (inactive)
GI50 (A549): > 100000 nM (inactive)
GI50 (ACHN): > 100000 nM (inactive)
GI50 (CCRF-CEM): > 100000 nM (inactive)
GI50 (COLO 205): 34000 nM (inactive)
GI50 (DLD-1): 88100 nM (inactive)
GI50 (DMS-114): 75500 nM (inactive)
GI50 (DMS-273): 54200 nM (inactive)
GI50 (HCC 2998): > 100000 nM (inactive)
GI50 (HCT-116): 64900 nM (inactive)
GI50 (HCT-15): 44800 nM
GI50 (HL-60): 29000 nM (inactive)
GI50 (HOP-62): > 100000 nM (inactive)
GI50 (HOP-92): 54200 nM (inactive)
GI50 (HT-29): 42900 nM (inactive)
GI50 (IGROV-1): > 100000 nM (inactive)
GI50 (KM-20L2): 31300 nM (inactive)
GI50 (KM12): 54300 nM (inactive)
GI50 (LOX IMVI): 56400 nM (inactive)
GI50 (LXFL 529): 59800 nM (inactive)
GI50 (M14): 37400 nM (inactive)
GI50 (M19-MEL): 41600 nM (inactive)
GI50 (MOLT-4): 59300 nM (inactive)
GI50 (Malme-3M): 40400 nM (inactive)
GI50 (NCI-H226): > 100000 nM (inactive)
GI50 (NCI-H23): 67000 nM (inactive)
GI50 (NCI-H460): 45000 nM (inactive)
GI50 (NCI-H522): 40200 nM (inactive)
GI50 (OVCAR-3): 71000 nM (inactive)
GI50 (OVCAR-4): > 100000 nM (inactive)
GI50 (OVCAR-5): 80200 nM (inactive)
GI50 (OVCAR-8): > 100000 nM (inactive)
GI50 (RPMI-8226): > 100000 nM (inactive)
GI50 (SF-268): > 100000 nM (inactive)
GI50 (SF-295): 78000 nM (inactive)
GI50 (SF-539): 87500 nM (inactive)
GI50 (SK-MEL-28): > 100000 nM (inactive)
GI50 (SK-MEL-2): 43800 nM (inactive)
GI50 (SK-MEL-5): 27200 nM (inactive)
GI50 (SK-OV-3): 42600 nM (inactive)
GI50 (SN12C): > 100000 nM (inactive)
GI50 (SNB-75): 58700 nM (inactive)
GI50 (SNB-78): > 100000 nM (inactive)
GI50 (SR): 44800 nM (inactive)
GI50 (TK-10): > 100000 nM (inactive)
GI50 (U-251): 53800 nM (inactive)
GI50 (UACC-257): > 100000 nM (inactive)
GI50 (UO-31): 77600 nM (inactive)
GI50 (XF498): 59000 nM (inactive)

CC[C@]12C=CCN3CCC4(c5cc([C@@]6(C(=O)OC)CC7CN(CCc8c6[nH]c6ccccc86)CC6CCCCC67)c(OC)cc5N(C)C4[C@](O)(C(=O)OC)C1OC(C)=O)[C@@H]32 (stereo partly drawn)
GI50 (786-0): < 10 nM (active)
GI50 (A498): < 15 nM (active)
GI50 (A549): < 10 nM (active)
GI50 (ACHN): < 14.6 nM (active)
GI50 (CAKI-1): < 25.2 nM (active)
GI50 (CCRF-CEM): < 10 nM (active)
GI50 (COLO 205): < 10 nM (active)
GI50 (DLD-1): 26.9 nM (active)
GI50 (DMS-114): < 10 nM (active)
GI50 (DMS-273): < 10 nM (active)
GI50 (DU-145): < 10 nM (active)
GI50 (EKVX): 743 nM (active)
GI50 (HCC 2998): < 10 nM (active)
GI50 (HCT-116): < 10 nM (active)
GI50 (HCT-15): 111 nM
GI50 (HL-60): < 10 nM (active)
GI50 (HOP-62): < 10 nM (active)
GI50 (HOP-92): < 10 nM (active)
GI50 (HT-29): < 10 nM (active)
GI50 (Hs-578T): < 10 nM (active)
GI50 (IGROV-1): < 10 nM (active)
GI50 (K562): < 10 nM (active)
GI50 (KM-20L2): < 10 nM (active)
GI50 (KM12): < 10 nM (active)
GI50 (LOX IMVI): < 10 nM (active)
GI50 (LXFL 529): < 10 nM (active)
GI50 (M14): < 10 nM (active)
GI50 (M19-MEL): < 10 nM (active)
GI50 (MCF7): < 10 nM (active)
GI50 (MDA-MB-231): < 10 nM (active)
GI50 (MDA-MB-435): < 10 nM (active)
GI50 (MDA-N): < 10 nM (active)
GI50 (MOLT-4): < 10 nM (active)
GI50 (Malme-3M): < 10 nM (active)
GI50 (NCI-H226): < 10 nM (active)
GI50 (NCI-H23): < 10 nM (active)
GI50 (NCI-H460): < 10 nM (active)
GI50 (NCI-H522): < 10 nM (active)
GI50 (NCI/ADR-RES): 186 nM (active)
GI50 (OVCAR-3): < 10 nM (active)
GI50 (OVCAR-4): 3380 nM (inactive)
GI50 (OVCAR-5): 21 nM (active)
GI50 (OVCAR-8): < 15 nM (active)
GI50 (PC-3): < 10 nM (active)
GI50 (RPMI-8226): < 10 nM (active)
GI50 (RXF 393): < 10 nM (active)
GI50 (SF-268): < 10 nM (active)
GI50 (SF-295): < 10 nM (active)
GI50 (SF-539): < 10 nM (active)
GI50 (SK-MEL-2): < 10 nM (active)
GI50 (SK-MEL-5): < 10 nM (active)
GI50 (SK-OV-3): < 10 nM (active)
GI50 (SN12C): < 10 nM (active)
GI50 (SNB-19): < 10 nM (active)
GI50 (SNB-75): < 10 nM (active)
GI50 (SNB-78): < 10 nM (active)
GI50 (SW-620): < 10 nM (active)
GI50 (TK-10): 64.3 nM (active)
GI50 (U-251): < 10 nM (active)
GI50 (UACC-257): < 10 nM (active)
GI50 (UACC-62): < 10 nM (active)
GI50 (UO-31): 157 nM (active)
GI50 (XF498): 46.9 nM (active)

Source: ChEMBL document CHEMBL1201862, “PubChem BioAssay data set” (2004)
